Experimental data taken from patent US12157741B2, “Macrocyclic inhibitors of DYRK1A” (DANA-FARBER CANCER INSTITUTE, INC., priority 2018, dated 2024).
Where two headings read alike, the source gives them in different places.

Tests used:
Format in all cases: binding
various enzymes [1] = biological target: various enzymes (Homo sapiens, UniProt O00750); details: compound 1 uM
Protocol: (§1) Ambit profiling was conducted in accordance with the manufacturer's instructions.

various enzymes [2] = biological target: various enzymes (Homo sapiens, UniProt O14976); details: compound 1 uM
Protocol: as §1

various enzymes [3] = biological target: various enzymes (Homo sapiens, UniProt O60331); details: compound 1 uM
Protocol: as §1

various enzymes [4] = biological target: various enzymes (Homo sapiens, UniProt O75582); details: compound 1 uM
Chain of various enzymes (Homo sapiens, UniProt O75582) (O75582 whole entry): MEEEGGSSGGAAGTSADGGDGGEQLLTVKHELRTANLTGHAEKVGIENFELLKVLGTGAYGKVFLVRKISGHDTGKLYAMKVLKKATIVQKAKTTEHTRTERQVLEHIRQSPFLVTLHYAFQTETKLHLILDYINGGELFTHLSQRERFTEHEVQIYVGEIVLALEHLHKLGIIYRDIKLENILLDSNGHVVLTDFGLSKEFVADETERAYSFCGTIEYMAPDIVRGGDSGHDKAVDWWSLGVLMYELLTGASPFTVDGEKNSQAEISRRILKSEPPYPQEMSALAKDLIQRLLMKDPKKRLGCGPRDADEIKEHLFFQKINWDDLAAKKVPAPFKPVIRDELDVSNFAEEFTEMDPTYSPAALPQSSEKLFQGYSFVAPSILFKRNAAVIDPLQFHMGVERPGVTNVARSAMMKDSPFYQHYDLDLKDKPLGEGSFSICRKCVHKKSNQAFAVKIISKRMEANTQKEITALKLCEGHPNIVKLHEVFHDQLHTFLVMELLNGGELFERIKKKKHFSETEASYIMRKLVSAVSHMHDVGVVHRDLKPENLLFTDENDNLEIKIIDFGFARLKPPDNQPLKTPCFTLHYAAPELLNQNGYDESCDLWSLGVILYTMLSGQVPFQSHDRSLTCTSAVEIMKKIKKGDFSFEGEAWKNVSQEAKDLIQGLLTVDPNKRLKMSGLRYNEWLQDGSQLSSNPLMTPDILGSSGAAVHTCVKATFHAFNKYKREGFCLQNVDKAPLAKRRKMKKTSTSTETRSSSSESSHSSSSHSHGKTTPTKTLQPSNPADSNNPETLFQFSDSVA
Protocol: as §1

various enzymes [5] = biological target: various enzymes (Homo sapiens, UniProt P00519, M351T)
Protocol: as §1

various enzymes [6] = biological target: various enzymes (Homo sapiens, UniProt P08581, Y1235D)
Protocol: as §1

various enzymes [7] = biological target: various enzymes (Homo sapiens, UniProt P11309); details: compound 1 uM
Chain of various enzymes (Homo sapiens, UniProt P11309) (P11309 whole entry): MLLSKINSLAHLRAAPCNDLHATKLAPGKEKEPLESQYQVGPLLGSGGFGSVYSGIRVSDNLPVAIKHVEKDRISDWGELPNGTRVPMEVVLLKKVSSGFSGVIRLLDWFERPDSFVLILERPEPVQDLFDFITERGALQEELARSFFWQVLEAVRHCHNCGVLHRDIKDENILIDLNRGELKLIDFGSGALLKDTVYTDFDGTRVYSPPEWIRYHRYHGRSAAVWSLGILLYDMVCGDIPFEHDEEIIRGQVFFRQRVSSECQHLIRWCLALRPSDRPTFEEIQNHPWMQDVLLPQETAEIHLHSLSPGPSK
Protocol: as §1

various enzymes [8] = biological target: various enzymes (Homo sapiens, UniProt P15056); details: compound 1 uM
Protocol: as §1

various enzymes [9] = biological target: T1, various enzymes (Homo sapiens, UniProt P29323); details: compound 1 uM
T1 sequence (P29323 19-1055): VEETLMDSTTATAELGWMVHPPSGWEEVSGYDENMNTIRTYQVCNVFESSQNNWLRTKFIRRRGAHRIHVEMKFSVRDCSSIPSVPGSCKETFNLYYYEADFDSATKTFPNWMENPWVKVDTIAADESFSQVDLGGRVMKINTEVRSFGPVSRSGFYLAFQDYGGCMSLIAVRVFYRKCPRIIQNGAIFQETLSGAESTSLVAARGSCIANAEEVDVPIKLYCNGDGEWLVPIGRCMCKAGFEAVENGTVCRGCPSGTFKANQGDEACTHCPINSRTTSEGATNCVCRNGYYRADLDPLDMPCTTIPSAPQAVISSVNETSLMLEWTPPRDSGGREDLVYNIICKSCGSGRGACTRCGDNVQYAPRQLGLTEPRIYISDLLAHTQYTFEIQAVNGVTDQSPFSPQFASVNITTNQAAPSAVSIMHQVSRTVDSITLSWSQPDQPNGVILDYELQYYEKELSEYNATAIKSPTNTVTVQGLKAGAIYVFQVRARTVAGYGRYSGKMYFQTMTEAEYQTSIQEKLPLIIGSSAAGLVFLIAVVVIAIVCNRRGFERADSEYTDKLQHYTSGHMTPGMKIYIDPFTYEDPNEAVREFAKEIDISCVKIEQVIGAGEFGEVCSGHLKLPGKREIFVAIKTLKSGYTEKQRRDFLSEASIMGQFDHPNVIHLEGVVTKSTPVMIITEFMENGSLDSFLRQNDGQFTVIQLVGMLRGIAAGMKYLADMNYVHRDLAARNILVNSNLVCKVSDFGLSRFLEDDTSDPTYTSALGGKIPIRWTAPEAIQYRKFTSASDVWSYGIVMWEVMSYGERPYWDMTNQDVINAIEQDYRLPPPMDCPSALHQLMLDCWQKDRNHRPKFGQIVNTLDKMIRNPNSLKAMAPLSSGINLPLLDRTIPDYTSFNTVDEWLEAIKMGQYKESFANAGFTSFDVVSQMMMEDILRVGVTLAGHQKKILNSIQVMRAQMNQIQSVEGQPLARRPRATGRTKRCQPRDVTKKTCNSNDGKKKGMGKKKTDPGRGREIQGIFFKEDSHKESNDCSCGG
Protocol: as §1

various enzymes [10] = biological target: various enzymes (Homo sapiens, UniProt P42336); details: compound 1 uM
Protocol: as §1

various enzymes [11] = biological target: various enzymes (Homo sapiens, UniProt P51956); details: compound 1 uM
Chain of various enzymes (Homo sapiens, UniProt P51956) (P51956 whole entry): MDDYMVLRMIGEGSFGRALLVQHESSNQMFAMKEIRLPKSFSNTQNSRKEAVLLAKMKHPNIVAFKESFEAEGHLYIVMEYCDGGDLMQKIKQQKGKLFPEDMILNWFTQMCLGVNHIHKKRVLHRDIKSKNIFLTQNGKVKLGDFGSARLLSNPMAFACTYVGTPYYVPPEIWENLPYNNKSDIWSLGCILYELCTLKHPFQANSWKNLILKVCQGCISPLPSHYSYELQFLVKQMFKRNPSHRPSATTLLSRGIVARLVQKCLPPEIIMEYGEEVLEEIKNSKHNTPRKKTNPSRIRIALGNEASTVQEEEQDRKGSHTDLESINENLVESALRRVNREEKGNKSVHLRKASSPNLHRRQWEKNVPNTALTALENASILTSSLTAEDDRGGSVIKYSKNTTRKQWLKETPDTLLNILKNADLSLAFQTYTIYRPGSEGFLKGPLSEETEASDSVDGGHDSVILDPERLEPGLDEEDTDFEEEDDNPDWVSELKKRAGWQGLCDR
Protocol: as §1

various enzymes [12] = biological target: various enzymes (Homo sapiens, UniProt P53350); details: compound 1 uM
Protocol: as §1

various enzymes [13] = biological target: various enzymes (Homo sapiens, UniProt P54764); details: compound 1 uM
Protocol: as §1

various enzymes [14] = biological target: various enzymes (Homo sapiens, UniProt Q13470); details: compound 1 uM
Protocol: as §1

various enzymes [15] = biological target: various enzymes (Homo sapiens, UniProt Q13523); details: compound 1 uM
Protocol: as §1

various enzymes [16] = biological target: various enzymes (Homo sapiens, UniProt Q13882); details: compound 1 uM
Chain of various enzymes (Homo sapiens, UniProt Q13882) (Q13882 whole entry): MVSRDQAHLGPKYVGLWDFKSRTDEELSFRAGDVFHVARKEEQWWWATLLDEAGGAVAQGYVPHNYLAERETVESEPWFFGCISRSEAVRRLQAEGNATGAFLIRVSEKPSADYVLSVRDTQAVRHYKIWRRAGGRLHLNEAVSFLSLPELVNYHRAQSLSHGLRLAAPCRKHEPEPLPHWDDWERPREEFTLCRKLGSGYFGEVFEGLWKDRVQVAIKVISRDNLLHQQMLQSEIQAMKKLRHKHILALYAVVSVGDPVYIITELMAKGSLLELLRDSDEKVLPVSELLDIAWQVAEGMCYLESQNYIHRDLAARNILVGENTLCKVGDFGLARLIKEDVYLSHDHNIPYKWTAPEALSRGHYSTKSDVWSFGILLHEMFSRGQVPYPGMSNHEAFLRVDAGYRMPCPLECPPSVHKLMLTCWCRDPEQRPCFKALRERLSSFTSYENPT
Protocol: as §1

various enzymes [17] = biological target: various enzymes (Homo sapiens, UniProt Q15418); details: compound 1 uM
Chain of various enzymes (Homo sapiens, UniProt Q15418) (Q15418 whole entry): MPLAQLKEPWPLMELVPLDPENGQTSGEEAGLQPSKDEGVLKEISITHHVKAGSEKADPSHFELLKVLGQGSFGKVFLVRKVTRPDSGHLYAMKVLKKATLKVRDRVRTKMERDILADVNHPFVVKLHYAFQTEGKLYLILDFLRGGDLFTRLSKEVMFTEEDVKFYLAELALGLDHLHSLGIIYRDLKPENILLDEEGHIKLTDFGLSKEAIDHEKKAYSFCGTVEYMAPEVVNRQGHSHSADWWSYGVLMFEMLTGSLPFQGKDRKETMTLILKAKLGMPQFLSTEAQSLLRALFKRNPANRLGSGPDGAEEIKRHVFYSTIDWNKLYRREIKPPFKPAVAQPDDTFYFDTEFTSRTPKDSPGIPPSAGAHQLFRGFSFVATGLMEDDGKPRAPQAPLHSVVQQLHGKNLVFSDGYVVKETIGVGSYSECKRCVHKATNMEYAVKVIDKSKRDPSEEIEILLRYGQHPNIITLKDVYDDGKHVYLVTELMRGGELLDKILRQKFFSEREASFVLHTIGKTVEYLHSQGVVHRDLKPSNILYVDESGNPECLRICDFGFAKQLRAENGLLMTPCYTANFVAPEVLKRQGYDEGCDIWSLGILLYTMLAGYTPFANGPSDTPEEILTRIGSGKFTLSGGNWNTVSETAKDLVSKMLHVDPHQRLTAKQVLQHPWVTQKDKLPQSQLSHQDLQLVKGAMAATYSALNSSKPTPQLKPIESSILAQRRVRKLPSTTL
Protocol: as §1

various enzymes [18] = biological target: various enzymes (Homo sapiens, UniProt Q16512); details: compound 1 uM
Protocol: as §1

various enzymes [19] = biological target: various enzymes (Homo sapiens, UniProt Q16832); details: compound 1 uM
Protocol: as §1

various enzymes [20] = biological target: various enzymes (Homo sapiens, UniProt Q8TDR2); details: compound 1 uM
Protocol: as §1

various enzymes [21] = biological target: various enzymes (Homo sapiens, UniProt Q8TF76); details: compound 1 uM
Protocol: as §1

various enzymes [22] = biological target: various enzymes (Homo sapiens, UniProt Q96Q40); details: compound 1 uM
Chain of various enzymes (Homo sapiens, UniProt Q96Q40) (Q96Q40 whole entry): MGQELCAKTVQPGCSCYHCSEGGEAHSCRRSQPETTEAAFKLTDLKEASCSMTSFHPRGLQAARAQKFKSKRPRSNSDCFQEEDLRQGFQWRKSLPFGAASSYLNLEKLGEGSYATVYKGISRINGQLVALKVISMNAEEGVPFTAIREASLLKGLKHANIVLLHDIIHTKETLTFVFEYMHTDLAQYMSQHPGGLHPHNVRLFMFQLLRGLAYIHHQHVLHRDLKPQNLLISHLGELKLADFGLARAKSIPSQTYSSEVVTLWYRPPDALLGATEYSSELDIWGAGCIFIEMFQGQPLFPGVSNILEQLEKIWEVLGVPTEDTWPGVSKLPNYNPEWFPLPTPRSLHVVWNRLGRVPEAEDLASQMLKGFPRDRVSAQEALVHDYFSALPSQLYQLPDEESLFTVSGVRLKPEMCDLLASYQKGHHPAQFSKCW
Protocol: as §1

various enzymes [23] = biological target: various enzymes (Homo sapiens, UniProt Q9H2G2); details: compound 1 uM
Protocol: as §1

various enzymes [24] = biological target: various enzymes (Homo sapiens, UniProt Q9NRP7); details: compound 1 uM
Chain of various enzymes (Homo sapiens, UniProt Q9NRP7) (Q9NRP7 whole entry): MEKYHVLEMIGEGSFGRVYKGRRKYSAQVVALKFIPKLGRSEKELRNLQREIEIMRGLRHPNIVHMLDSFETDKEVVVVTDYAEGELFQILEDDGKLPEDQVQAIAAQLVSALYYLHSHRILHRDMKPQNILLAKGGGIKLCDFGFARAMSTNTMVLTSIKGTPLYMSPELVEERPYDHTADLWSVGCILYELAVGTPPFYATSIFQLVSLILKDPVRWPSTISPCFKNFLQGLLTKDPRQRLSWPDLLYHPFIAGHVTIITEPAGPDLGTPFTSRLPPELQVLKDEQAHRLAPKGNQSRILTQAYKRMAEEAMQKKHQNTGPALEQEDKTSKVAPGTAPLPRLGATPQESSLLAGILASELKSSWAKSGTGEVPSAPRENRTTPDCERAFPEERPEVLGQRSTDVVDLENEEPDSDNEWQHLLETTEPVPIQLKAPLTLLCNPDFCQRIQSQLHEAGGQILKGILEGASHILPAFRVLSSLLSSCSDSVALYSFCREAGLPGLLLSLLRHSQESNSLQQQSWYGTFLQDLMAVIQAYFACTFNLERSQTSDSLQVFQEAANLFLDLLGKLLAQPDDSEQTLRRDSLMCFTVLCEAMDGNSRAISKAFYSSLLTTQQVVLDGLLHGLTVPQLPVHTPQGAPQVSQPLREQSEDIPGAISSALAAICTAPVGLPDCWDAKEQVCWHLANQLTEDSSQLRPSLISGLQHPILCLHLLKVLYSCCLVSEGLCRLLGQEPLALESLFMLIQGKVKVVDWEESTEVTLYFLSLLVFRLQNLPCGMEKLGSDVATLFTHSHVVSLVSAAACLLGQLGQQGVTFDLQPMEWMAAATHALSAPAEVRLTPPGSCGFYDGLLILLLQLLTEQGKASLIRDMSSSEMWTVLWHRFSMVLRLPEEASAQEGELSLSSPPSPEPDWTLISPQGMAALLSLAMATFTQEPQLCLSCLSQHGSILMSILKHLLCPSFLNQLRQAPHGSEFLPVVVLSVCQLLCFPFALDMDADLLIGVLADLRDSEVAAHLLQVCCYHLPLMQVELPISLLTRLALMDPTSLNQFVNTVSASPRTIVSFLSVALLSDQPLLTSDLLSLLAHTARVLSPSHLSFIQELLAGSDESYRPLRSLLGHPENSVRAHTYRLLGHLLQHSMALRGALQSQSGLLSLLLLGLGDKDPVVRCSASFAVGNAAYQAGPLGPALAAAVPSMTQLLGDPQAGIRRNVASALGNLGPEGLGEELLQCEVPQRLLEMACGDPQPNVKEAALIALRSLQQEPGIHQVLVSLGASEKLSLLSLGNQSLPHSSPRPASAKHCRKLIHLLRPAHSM
Protocol: as §1

various enzymes [25] = biological target: various enzymes (Homo sapiens, UniProt Q9Y243); details: compound 1 uM
Chain of various enzymes (Homo sapiens, UniProt Q9Y243) (Q9Y243 whole entry): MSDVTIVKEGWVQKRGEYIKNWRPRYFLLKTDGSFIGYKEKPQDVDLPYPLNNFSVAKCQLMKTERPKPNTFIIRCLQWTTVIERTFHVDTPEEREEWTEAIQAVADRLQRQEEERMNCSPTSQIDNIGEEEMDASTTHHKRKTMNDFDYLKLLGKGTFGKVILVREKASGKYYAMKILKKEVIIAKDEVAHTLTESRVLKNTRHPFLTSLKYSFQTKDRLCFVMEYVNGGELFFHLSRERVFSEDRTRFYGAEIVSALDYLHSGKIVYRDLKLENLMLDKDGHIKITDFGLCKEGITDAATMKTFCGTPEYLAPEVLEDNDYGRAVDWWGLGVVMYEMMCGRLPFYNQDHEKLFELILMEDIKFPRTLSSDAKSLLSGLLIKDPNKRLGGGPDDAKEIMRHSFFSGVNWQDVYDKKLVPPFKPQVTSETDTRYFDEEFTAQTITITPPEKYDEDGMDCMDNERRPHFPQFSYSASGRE
Protocol: as §1

CC(C)N1Cc2nn(C)cc2-c2cnc3[nH]cc(c3c2)-c2cn(nc2C(F)(F)F)CCCC1=O [Compound 45, (Z)-5-isopropyl-31-methyl-13-(trifluoromethyl)-11H,21H,31H-5-aza-2(3,5)-pyrrolo[2,3-b]pyridina-1(4,1),3(4,3)-dipyrazolacyclononaphan-6-one]
Ambit profiling: PIK3C2B (various enzymes [1]): 92 | Ambit profiling: GAK (various enzymes [2]): 5.7 | Ambit profiling: PIP5K1C (various enzymes [3]): 5.8 | Ambit profiling: RPS6KA5(Kin.Dom.1-N-terminal) (various enzymes [4]): 70 | Ambit profiling: RPS6KA5(Kin.Dom.2-C-terminal) (various enzymes [4]): 100 | Ambit profiling: ABL1(M351T)-phosphorylated (various enzymes [5]; compound 1 uM): 19 | Ambit profiling: MET(Y1235D) (various enzymes [6]; compound 1 uM): 4.8 | Ambit profiling: PIM1 (various enzymes [7]): 75 | Ambit profiling: BRAF (various enzymes [8]): 100 | Ambit profiling: EPHB2 (various enzymes [9]): 77 | Ambit profiling: PIK3CA (various enzymes [10]): 100 | Ambit profiling: NEK3 (various enzymes [11]): 50 | Ambit profiling: PLK1 (various enzymes [12]): 93 | Ambit profiling: EPHA4 (various enzymes [13]): 88 | Ambit profiling: TNK1 (various enzymes [14]): 12 | Ambit profiling: PRP4 (various enzymes [15]): 36 | Ambit profiling: BRK (various enzymes [16]): 100 | Ambit profiling: RSK1(Kin.Dom.1-N-terminal) (various enzymes [17]): 17 | Ambit profiling: RSK1(Kin.Dom.2-C-terminal) (various enzymes [17]): 85 | Ambit profiling: PKN1 (various enzymes [18]): 72 | Ambit profiling: DDR2 (various enzymes [19]): 13 | Ambit profiling: STK35 (various enzymes [20]): 100 | Ambit profiling: HASPIN (various enzymes [21]): 2.3 | Ambit profiling: PFTAIRE2 (various enzymes [22]): 39 | Ambit profiling: SLK (various enzymes [23]): 2.8 | Ambit profiling: STK36 (various enzymes [24]): 100 | Ambit profiling: AKT3 (various enzymes [25]): 100

COc1c2c(nn1C)CN(C(C)C)C(=O)CCCn1cc(c(C(F)(F)F)n1)-c1c[nH]c3ncc-2cc13 [Compound 50, (Z)-5-isopropyl-35-methoxy-31-methyl-13-(trifluoromethyl)-11H,21H,31H-5-aza-2(3,5)-pyrrolo[2,3-b]pyridina-1(4,1),3(4,3)-dipyrazolacyclononaphan-6-one]
Ambit profiling: PIK3C2B (various enzymes [1]): 100 | Ambit profiling: GAK (various enzymes [2]): 4 | Ambit profiling: PIP5K1C (various enzymes [3]): 32 | Ambit profiling: RPS6KA5(Kin.Dom.1-N-terminal) (various enzymes [4]): 18 | Ambit profiling: RPS6KA5(Kin.Dom.2-C-terminal) (various enzymes [4]): 72 | Ambit profiling: ABL1(M351T)-phosphorylated (various enzymes [5]): 4.1 | Ambit profiling: MET(Y1235D) (various enzymes [6]): 1.4 | Ambit profiling: PIM1 (various enzymes [7]): 77 | Ambit profiling: BRAF (various enzymes [8]): 87 | Ambit profiling: EPHB2 (various enzymes [9]): 55 | Ambit profiling: PIK3CA (various enzymes [10]): 83 | Ambit profiling: NEK3 (various enzymes [11]): 51 | Ambit profiling: PLK1 (various enzymes [12]): 100 | Ambit profiling: EPHA4 (various enzymes [13]): 63 | Ambit profiling: TNK1 (various enzymes [14]): 28 | Ambit profiling: PRP4 (various enzymes [15]): 87 | Ambit profiling: BRK (various enzymes [16]): 80 | Ambit profiling: RSK1(Kin.Dom.1-N-terminal) (various enzymes [17]): 3.8 | Ambit profiling: RSK1(Kin.Dom.2-C-terminal) (various enzymes [17]): 81 | Ambit profiling: PKN1 (various enzymes [18]): 34 | Ambit profiling: DDR2 (various enzymes [19]): 32 | Ambit profiling: STK35 (various enzymes [20]): 94 | Ambit profiling: HASPIN (various enzymes [21]): 42 | Ambit profiling: PFTAIRE2 (various enzymes [22]): 60 | Ambit profiling: SLK (various enzymes [23]): 0.4 | Ambit profiling: STK36 (various enzymes [24]): 100 | Ambit profiling: AKT3 (various enzymes [25]): 100
